Data taken from ChEMBL document CHEMBL3885881, “DrugMatrix”.

Species: Rattus norvegicus
Assay: DrugMatrix - Regimen: Daily Repeat
Assay type: toxicity, organism-based, Sprague-Dawley
Parameters: regimen Daily Repeat, gender Male, age 6-8 weeks
Conditions: in vivo, po, route oral GAVAGE, vehicle .5 % CMC; for ABSOLUTE BASOPHIL / ABSOLUTE EOSINOPHIL / ABSOLUTE LYMPHOCYTE / ABSOLUTE MONOCYTE / ABSOLUTE SEGMENTED NEUTROPHIL / BASOPHIL / EOSINOPHIL / ERYTHROCYTE COUNT / HEMATOCRIT / HEMOGLOBIN / LEUKOCYTE COUNT / LYMPHOCYTE / MEAN CORPUSCULAR HEMOGLOBIN / MEAN CORPUSCULAR HEMOGLOBIN CONCENTRATION / MEAN CORPUSCULAR VOLUME / MONOCYTE / NEUTROPHIL / NUCLEATED RED BLOOD CELLS / PLATELET COUNT: tissue Blood; for ALANINE AMINOTRANSFERASE / ALBUMIN / ALKALINE PHOSPHATASE / ASPARTATE AMINOTRANSFERASE / BLOOD UREA NITROGEN / CARBON DIOXIDE / CHLORIDE / CHOLESTEROL / CREATINE PHOSPHOKINASE / CREATININE / GLUCOSE / LACTATE DEHYDROGENASE / LIPASE / PHOSPHORUS / POTASSIUM / SODIUM / TOTAL BILIRUBIN / TOTAL PROTEIN / URIC ACID: tissue Plasma
[1] = 150 mg/kg, 120 h, dose level Low, time 5 day
[2] = 1500 mg/kg, 72 h, dose level High, time 3 day
[3] = 1500 mg/kg, 120 h, dose level High, time 5 day

SMILES: C[C@]1(Cn2ccnn2)[C@H](C(=O)O)N2C(=O)C[C@H]2S1(=O)=O [TAZOBACTAM]
- ABSOLUTE BASOPHIL [1]: 0 CELLS/uL
- ABSOLUTE EOSINOPHIL [1]: 96 CELLS/uL
- ABSOLUTE LYMPHOCYTE [1]: 12730.67 CELLS/uL
- ABSOLUTE MONOCYTE [1]: 0 CELLS/uL
- ABSOLUTE SEGMENTED NEUTROPHIL [1]: 1940 CELLS/uL
- BASOPHIL [1]: 0%
- EOSINOPHIL [1]: 0.67%
- ERYTHROCYTE COUNT [1]: 5.47 x10E6/uL
- HEMATOCRIT [1]: 33.33%
- HEMOGLOBIN [1]: 12.73 G/DL
- LEUKOCYTE COUNT [1]: 14.77 x10E3/uL
- LYMPHOCYTE [1]: 86%
- MEAN CORPUSCULAR HEMOGLOBIN [1]: 23.3 pg
- MEAN CORPUSCULAR HEMOGLOBIN CONCENTRATION [1]: 38.2 G/DL
- MEAN CORPUSCULAR VOLUME [1]: 60.97 fL
- MONOCYTE [1]: 0%
- NEUTROPHIL [1]: 13.33%
- NUCLEATED RED BLOOD CELLS [1]: 0 /100WBC
- PLATELET COUNT [1]: 1082 x10E3/uL
- ALANINE AMINOTRANSFERASE [1]: 60.67 u/L
- ALBUMIN [1]: 4.2 G/DL
- ALKALINE PHOSPHATASE [1]: 333 u/L
- ASPARTATE AMINOTRANSFERASE [1]: 84 u/L
- BLOOD UREA NITROGEN [1]: 17.33 mg/dL
- CARBON DIOXIDE [1]: 23.33 mmol/L
- CHLORIDE [1]: 104.33 MEQ/L
- CHOLESTEROL [1]: 76.67 mg/dL
- CREATINE PHOSPHOKINASE [1]: 277 u/L
- CREATININE [1]: 0.21 mg/dL
- GLUCOSE [1]: 141.33 mg/dL
- LACTATE DEHYDROGENASE [1]: 295.67 u/L
- LIPASE [1]: 9 u/L
- PHOSPHORUS [1]: 13.07 mg/dL
- POTASSIUM [1]: 6.29 MEQ/L
- SODIUM [1]: 144.97 MEQ/L
- TOTAL BILIRUBIN [1]: 0.17 mg/dL
- TOTAL PROTEIN [1]: 5.8 G/DL
- URIC ACID [1]: 1.83 mg/dL
- ABSOLUTE BASOPHIL [2]: 0 CELLS/uL
- ABSOLUTE EOSINOPHIL [2]: 240.33 CELLS/uL
- ABSOLUTE LYMPHOCYTE [2]: 12544 CELLS/uL
- ABSOLUTE MONOCYTE [2]: 44.33 CELLS/uL
- ABSOLUTE SEGMENTED NEUTROPHIL [2]: 838 CELLS/uL
- BASOPHIL [2]: 0%
- EOSINOPHIL [2]: 1.67%
- ERYTHROCYTE COUNT [2]: 5.29 x10E6/uL
- HEMATOCRIT [2]: 33.47%
- HEMOGLOBIN [2]: 12.83 G/DL
- LEUKOCYTE COUNT [2]: 13.67 x10E3/uL
- LYMPHOCYTE [2]: 91.67%
- MEAN CORPUSCULAR HEMOGLOBIN [2]: 24.23 pg
- MEAN CORPUSCULAR HEMOGLOBIN CONCENTRATION [2]: 38.33 G/DL
- MEAN CORPUSCULAR VOLUME [2]: 63.23 fL
- MONOCYTE [2]: 0.33%
- NEUTROPHIL [2]: 6.33%
- NUCLEATED RED BLOOD CELLS [2]: 0 /100WBC
- PLATELET COUNT [2]: 1291.33 x10E3/uL
- ALANINE AMINOTRANSFERASE [2]: 65.33 u/L
- ALBUMIN [2]: 4.1 G/DL
- ALKALINE PHOSPHATASE [2]: 447.33 u/L
- ASPARTATE AMINOTRANSFERASE [2]: 89 u/L
- BLOOD UREA NITROGEN [2]: 15.67 mg/dL
- CARBON DIOXIDE [2]: 27.33 mmol/L
- CHLORIDE [2]: 102.67 MEQ/L
- CHOLESTEROL [2]: 73.33 mg/dL
- CREATINE PHOSPHOKINASE [2]: 209.33 u/L
- CREATININE [2]: 0.18 mg/dL
- GLUCOSE [2]: 161.67 mg/dL
- LACTATE DEHYDROGENASE [2]: 102 u/L
- LIPASE [2]: 9 u/L
- PHOSPHORUS [2]: 13.27 mg/dL
- POTASSIUM [2]: 6.83 MEQ/L
- SODIUM [2]: 146.53 MEQ/L
- TOTAL BILIRUBIN [2]: 0.17 mg/dL
- TOTAL PROTEIN [2]: 5.63 G/DL
- URIC ACID [2]: 1.73 mg/dL
- ABSOLUTE BASOPHIL [3]: 0 CELLS/uL
- ABSOLUTE EOSINOPHIL [3]: 130.33 CELLS/uL
- ABSOLUTE LYMPHOCYTE [3]: 11683.33 CELLS/uL
- ABSOLUTE MONOCYTE [3]: 0 CELLS/uL
- ABSOLUTE SEGMENTED NEUTROPHIL [3]: 1019.67 CELLS/uL
- BASOPHIL [3]: 0%
- EOSINOPHIL [3]: 1%
- ERYTHROCYTE COUNT [3]: 5.74 x10E6/uL
- HEMATOCRIT [3]: 36.23%
- HEMOGLOBIN [3]: 13.93 G/DL
- LEUKOCYTE COUNT [3]: 12.83 x10E3/uL
- LYMPHOCYTE [3]: 91%
- MEAN CORPUSCULAR HEMOGLOBIN [3]: 24.47 pg
- MEAN CORPUSCULAR HEMOGLOBIN CONCENTRATION [3]: 38.5 G/DL
- MEAN CORPUSCULAR VOLUME [3]: 63.5 fL
- MONOCYTE [3]: 0%
- NEUTROPHIL [3]: 8%
- NUCLEATED RED BLOOD CELLS [3]: 0 /100WBC
- PLATELET COUNT [3]: 1185.67 x10E3/uL
- ALANINE AMINOTRANSFERASE [3]: 58.67 u/L
- ALBUMIN [3]: 4.4 G/DL
- ALKALINE PHOSPHATASE [3]: 302 u/L
- ASPARTATE AMINOTRANSFERASE [3]: 76 u/L
- BLOOD UREA NITROGEN [3]: 18.33 mg/dL
- CARBON DIOXIDE [3]: 27 mmol/L
- CHLORIDE [3]: 104 MEQ/L
- CHOLESTEROL [3]: 62.67 mg/dL
- CREATINE PHOSPHOKINASE [3]: 174 u/L
- CREATININE [3]: 0.22 mg/dL
- GLUCOSE [3]: 170 mg/dL
- LACTATE DEHYDROGENASE [3]: 115.67 u/L
- LIPASE [3]: 9 u/L
- PHOSPHORUS [3]: 12.83 mg/dL
- POTASSIUM [3]: 6.45 MEQ/L
- SODIUM [3]: 148.17 MEQ/L
- TOTAL BILIRUBIN [3]: 0.2 mg/dL
- TOTAL PROTEIN [3]: 6.2 G/DL
- URIC ACID [3]: 1.8 mg/dL
